Laboratory results reported in US20020131953A1, “In situ langerhans cell vaccine” (UT SOUTHWESTERN MEDICAL CENTER, priority 2001, published 2002).

B1: RANTES (protein, UniProt P13501 24-91, looked up)
C-C motif chemokine 5: SPYSSDTTPCCFAYIARPLPRAHIKEYFYTSGKCSNPAVVFVTRKNRQVCANPEKKWVREYINSLEMS
notes: chemokine tested for promoting migration of mature DC
B2: MIP-1α (protein, UniProt P10147 24-92, looked up)
C-C motif chemokine 3: SLAADTPTACCFSYTSRQIPQNFIADYFETSSQCSKPGVIFLTKRSRQVCADPSEEWVQKYVSDLELSA
notes: as for B1
B3: MIP-1γ (protein, UniProt P51670 22-122, looked up)
C-C motif chemokine 9: QITHATETKEVQSSLKAQQGLEIEMFHMGFQDSSDCCLSYNSRIQCSRFIGYFPTSGGCTRPGIIFISKRGFQVCANPSDRRVQRCIERLEQNSQPRTYKQ
notes: as for B1

Key:
[1] = system: Langerhans cells (LC); assay: LC entrapment after subcutaneous rod implantation and DNFB painting; format: in vivo, BALB/c mice; settings: 24 hours after DNFB painting over BSA rod implantation sites
Description: After 24 hr pre-incubation in PBS at 37° C., a MIP-3β or BSA rod was cut into 4 short pieces (2.5 mm length) and implanted subcutaneously into a mouse with 200 μl of PBS using a 20G1/2 needle.
In an attempt to induce LC maturation and elevate MIP-3β responsiveness, DNFB was applied over the implantation sites.

[2] = system: Spleen DC; assay: In vitro Transwell migration of spleen DC toward chemokine; format: cell-based, BALB/c mice; settings: for % specific migration: spleen cell migration, transwell, 2 hr incubation at 37° C.
Description: (§1) Several chemokines were tested in an in vitro transwell system for their ability to promote migration of mature DC, including MIP-1α, MIP-1γ, MCP-3, RANTES and MIP-3β. In vitro cell migration assays were performed by using 6.5 mm Transwell units (Costar, Cambridge, Mass.). Spleen DC or T cells prepared from BALB/c mice were placed in the upper chamber of the transwell system and chemokine (e.g., MIP-3β) was added to the lower chamber of the transwell system. After 2 hr incubation at 37° C., the migratory cells were harvested from the lower chambers, and the % DC (or T cell) migration was calculated by dividing the output CD11c^+ (or CD3^+) cells by the input CD11c^+ (or CD3^+) cells.

[3] = system: T cells; assay: In vitro Transwell migration of T cells toward chemokine; format: cell-based, BALB/c mice; settings: relative to mature DCs (FIG. 1a)
Description: as §1

[4] = system: T cell migration; assay: Biological activity of MIP-3β released from EVA rods (T cell chemotaxis assay); format: cell-based; settings: MIP-3β liberated from the EVA polymer, Day 3 samples tested at 33 or 100% (vol/vol)
Description: To determine whether the released MIP-3β was biologically active, the same samples as used above were tested at 33 or 100% (vol/vol) for their biological activities to promote T cell migration (FIG. 1e). DNFB-induced LC emigration was examined by counting the numbers of IA^+ and DEC205^+ epidermal cells after whole mount epidermal staining. See Mummert et al., 2000, J. Exp. Med. 192:769-779.

Row | Molecule | % specific migration [2] | other results
1 | O=[N+]([O-])c1ccc(F)c([N+](=O)[O-])c1 [DNFB, dinitroflourobenzene] | – | reduction in surface LC densities [1]: 25-30%
2 | MIP-3β | 13.2% | concentrations promoting migration of mature DCs ([2]; chemokine in lower chamber (FIG. 1a)): 3 to 10 ng/mL; potency in promoting migration of CD11c-positive splenic dendritic cell fractions ([2]; compared among the chemokines tested): most potent; concentrations required for recruiting T cells [3]: much higher concentrations were required; biological activity in the chemotaxis assay [4]: significant biological activities
3 | monocyte chemotactic protein-3 [MCP-3] | 18.2% | –
4 | B1 | 9.1% | –
5 | B2 | 8.2% | –
6 | B3 | 5.4% | –
